Patent publication US20030064380A1, “Anergy-regulated molecules” (The Center For Blood Research, Inc., priority 2001, published 2003)

Assays:
D5 T cells = test: proliferation assay (3H-thymidine) of D5 T cells after ionomycin pretreatment; format: cell-based, murine
Protocol: D5 or primary T cells were stimulated with APC and antigen and pulsed for 24 hours with 10 μCi/ml ^3H-thymidine. DNA was collected using a cell harvester and the amount of radioactivity incorporated was measured in a β-counter.
(§1) The murine antigen-specific Th1 clone D5 was used to set up the model of clonal anergy developed by Schwartz and coworkers (Schwartz, (1996) J. Exp. Med. 184: 1-8).

D5 cells = test: transcription of inducible genes in ionomycin-treated D5 cells on second stimulation (RNase protection); format: cell-based, murine; conditions: second stimulation with anti-CD3/anti-CD28 or antigen/APC
Protocol: (§2) Total cellular RNA was purified from resting cells or cells stimulated with APC and antigen or anti-CD3 plus anti-CD28 for 4 h, using Ultraspec reagent (Biotecx) and analyzed using the RiboQuant multiprobe RNase protection kit and specific multi-set probes (Pharmingen) according to the manufacturer's instructions. Jurkat cells were transfected by electroporation in serum-free medium with pulses of 250 V and 960 μF with […] of pEGFPN1 (Clontech) or pNLS-NFAT1 (ST2+5+8) (Okamura et al., (2000) Mol. Cell. 6: 539-550). RNA from transiently transfected Jurkat cells was obtained after selecting transfected cells for expression of a cotransfected murine CD4 plasmid using magnetic beads (Dynal).
as §1

Th1 cells = test: cytokine mRNA induction in primary Th1 cells after tolerising pretreatment; format: cell-based, mice
Protocol: The murine Th1 cell clone D5 (Ar-5) was cultured as previously described (Agarwal and Rao, (1998) Immunity 9: 765-775). Primary CD4+T cells were isolated from lymph nodes and spleen of NFAT1−/− or wild type DO11.10 transgenic mice using magnetic beads (Dynal), and differentiated in vitro by stimulating for one week with irradiated APC and 1 μg/ml OVA as previously described (Agarwal and Rao, (1998) Immunity 9: 765-775). Jurkat and Phoenix Ecotropic cells were cultured in Dulbecco's modified Eagle's medium supplemented with 10% fetal calf serum, 10 mM HEPES and 2 mM glutamine.
as §2
(§3) Thus the net effect of a tolerising stimulus on T cells is to skew the cytokine response towards production of the immunosuppressive cytokine […], while down-regulating production of multiple other cytokines and chemokines associated with a productive immune response.
The anergised cells were fully responsive to PMA and ionomycin, stimuli which bypass the membrane-proximal steps of TCR signal transduction.

Th2 cells = test: cytokine mRNA levels in Th2 cells after ionomycin pretreatment; format: cell-based
Protocol: as §2, §3

caspase-3 [1] = test: RNase protection assay of caspase-3 mRNA; format: cell-based, murine; conditions: D5 T cells
Protocol: as §2
(§4) Of particular interest was the fact that several of the ionomycin-induced genes encoded proteins involved (or potentially involved) in protein degradation. Candidate genes in this category included caspase-3, SOCS-2 and Traf5 (FIG. 6B). Caspase-3 is an enzyme for which commercial reagents are readily available. Tests were conducted to determine whether caspase-3 was activated and functional in ionomycin-pretreated T cells. […] Further work will be necessary to establish whether proteolysis occurs in specific intracellular compartments relevant to TCR signal transduction or whether other signaling proteins are substrates for proteolysis in anergic cells.

caspase-3 [2] = test: Western blotting of ionomycin-treated T cells; format: cell-based, murine
Protocol: Total cellular extracts were prepared by boiling cell pellets directly in SDS containing loading buffer to prevent proteolysis during cell lysis. Antibodies against caspase-3 (Santa Cruz) and active caspase-3 (Cell Signaling) were used. The polyclonal antibody 67.1 against NFAT1 has been described (Okamura et al., (2000) Mol. Cell. 6: 539-550).
as §4

D5 and Th1 cells = test: gene transcription profiles of ionomycin-induced genes (FIGS. 6B, 7B), Affymetrix arrays and real-time RT-PCR; format: cell-based, murine
Protocol: D5 or primary T cells from NFAT1−/− or wild type DO11.10 transgenic mice were stimulated for 2, 6 or 16 hours with 500 nM ionomycin, 20 nM PMA plus 500 nM ionomycin, or 1 μM CsA plus 500 nM ionomycin. Total RNA was isolated with an RNeasy kit (QIAGEN). Ten μg of total RNA was quantitatively amplified and biotin-labeled as described (Byrne et al., (2000) “Preparation of mRNA for Expression Monitoring” Current Protocols in Molecular Biology (John Wiley & Sons, Inc.) pp. 22.22.21-22.22.13). Hybridization to GeneChips® (Affymetrix) displaying probes for 11,000 mouse genes/ESTs was performed at 40° C. overnight in a mix that included 10 μg fragmented RNA, 6× SSPE, 0.005% Triton X-100 and 100 μg/ml herring sperm DNA in a total volume of 200 μl. Chips were washed, stained with SA-PE and read using an Affymetrix GeneChip® scanner and accompanying gene expression software. […]
Total RNA was prepared from resting or stimulated T cells using Ultraspec reagent (Biotecx). cDNA was synthesized using oligo-dT primers and Superscript polymerase (Invitrogen) following the manufacturer's recommendations. Quantitative real-time PCR was performed in an I-Cycler (BioRad) using a SYBR Green PCR kit from Applied Biosystems and specific primers to amplify 100-200 bp fragments from the different genes analyzed. A threshold was set in the linear part of the amplification curve (fluorescence=f[cycle number]) and the number of cycles needed to reach it calculated for every gene. […]
Among them were many ESTs with no assigned function; a single cytokine gene, M-CSF; genes in other functional categories as shown in FIG. 6B; but no other genes normally associated with a productive immune response. […] To validate the array data, expression of 15 of the 18 genes were evaluated by quantitative real-time RT-PCR, and in every case ionomycin-mediated induction was confirmed (see numbers within panels of FIG. 6B). […]

[3] = primary Th1 cells, pretreatment, subsequent stimulation with antigen

## C[C@H](CCC(=O)O)C[C@H](C)C[C@H](C)C(=O)/C=C(\O)[C@H](C)C[C@H](C)C/C=C/[C@@H](C)[C@@H](O)[C@@H](C)[C@@H](O)C[C@@H]1CC[C@@](C)([C@H]2CC[C@@](C)([C@@H](C)O)O2)O1 [Ionomycin, ionomycin]
D5 T cells
  subsequent proliferative response to antigen or anti-CD3: greatly diminished
D5 cells
  transcription of inducible genes including IL-2, IFN-γ, TNF-α, GM-CSF and MIP-1α: markedly decreased
Th1 cells; NFAT1−/− Th1 cells, after pretreatment
  induction of IL-2 and IFN-γ mRNA: perceptible induction
Th1 cells; [3]
  effect on Fas-L mRNA: less effect
  induction of IL-2, IFN-γ, IL-10, TNF-α and MIP-1α mRNAs: pronounced decrease
Th1 cells; wildtype DO11.10 Th1 T cells, pretreatment
  induction of L-2 and IFN-γ mRNA: markedly decreased
Th2 cells
  IL-10 transcript levels: not affected
  reduction in mRNA levels of IL-4, IL-5 and IL-13: approximately 70%
caspase-3 [1]
  caspase-3 mRNA level: upregulated
caspase-3 [2]; ionomycin-treated T cells, 6 h to 16-18 h
  caspase-3 protein (procaspase 3, p20 and active p17 forms): induced at the protein level and activated
caspase-3 [2]; treated D5 cells, Western blots
  cleavage of Vav-1, Gads and PKC-theta: minor cleavage
D5 and Th1 cells; compared to PMA/ionomycin
  induction of Grg4, Ikaros, PTP-1B and GBP-3: more strongly induced
D5 and Th1 cells; early times
  induction of Rab-10: markedly induced
D5 and Th1 cells; ionomycin versus PMA/ionomycin
  induction of jumonji, CD98 and FasL: similarly induced
